The source made the active and inactive calls.
Columns and labels:
[1] = reduction of Shn3 3'UTR-driven luciferase in osteoblasts – cell-based, Clone20 osteoblasts, firefly luciferase, cherry-picked, dose response (AID 624132); format: functional;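 further: firefly luciferase luminescence from reporter carrying the Shn3 3'UTR in osteoblasts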
Exodeoxyribonuclease V = Exodeoxyribonuclease V (Escherichia coli (strain K12), UniProt P04993+P07648+P08394); assay: RecBCD inhibition via phage-restricted bacterial growth – absorbance, V66 E. coli, mutant T4 phage, counter-screen for AddAB inhibitor project, dose response (AID 492957); format: functional, cell-based, Escherichia coli str. K-12 substr. MG1655
Exodeoxyribonuclease V, sequence (P04993 whole entry): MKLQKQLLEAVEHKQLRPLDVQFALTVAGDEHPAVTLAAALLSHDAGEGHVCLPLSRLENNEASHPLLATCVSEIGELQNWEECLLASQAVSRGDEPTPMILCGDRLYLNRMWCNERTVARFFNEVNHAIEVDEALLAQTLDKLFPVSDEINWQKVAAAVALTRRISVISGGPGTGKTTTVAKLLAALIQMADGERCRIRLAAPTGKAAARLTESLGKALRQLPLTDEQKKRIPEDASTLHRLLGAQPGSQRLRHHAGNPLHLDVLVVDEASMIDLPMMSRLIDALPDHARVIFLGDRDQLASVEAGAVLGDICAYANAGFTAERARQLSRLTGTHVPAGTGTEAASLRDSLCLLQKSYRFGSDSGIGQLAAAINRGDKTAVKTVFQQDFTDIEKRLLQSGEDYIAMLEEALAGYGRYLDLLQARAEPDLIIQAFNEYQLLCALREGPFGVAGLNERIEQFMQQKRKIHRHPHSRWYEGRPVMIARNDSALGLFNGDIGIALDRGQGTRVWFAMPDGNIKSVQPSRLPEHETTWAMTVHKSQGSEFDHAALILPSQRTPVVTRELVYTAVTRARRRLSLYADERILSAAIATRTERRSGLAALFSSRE
Exodeoxyribonuclease V, sequence (P07648 whole entry): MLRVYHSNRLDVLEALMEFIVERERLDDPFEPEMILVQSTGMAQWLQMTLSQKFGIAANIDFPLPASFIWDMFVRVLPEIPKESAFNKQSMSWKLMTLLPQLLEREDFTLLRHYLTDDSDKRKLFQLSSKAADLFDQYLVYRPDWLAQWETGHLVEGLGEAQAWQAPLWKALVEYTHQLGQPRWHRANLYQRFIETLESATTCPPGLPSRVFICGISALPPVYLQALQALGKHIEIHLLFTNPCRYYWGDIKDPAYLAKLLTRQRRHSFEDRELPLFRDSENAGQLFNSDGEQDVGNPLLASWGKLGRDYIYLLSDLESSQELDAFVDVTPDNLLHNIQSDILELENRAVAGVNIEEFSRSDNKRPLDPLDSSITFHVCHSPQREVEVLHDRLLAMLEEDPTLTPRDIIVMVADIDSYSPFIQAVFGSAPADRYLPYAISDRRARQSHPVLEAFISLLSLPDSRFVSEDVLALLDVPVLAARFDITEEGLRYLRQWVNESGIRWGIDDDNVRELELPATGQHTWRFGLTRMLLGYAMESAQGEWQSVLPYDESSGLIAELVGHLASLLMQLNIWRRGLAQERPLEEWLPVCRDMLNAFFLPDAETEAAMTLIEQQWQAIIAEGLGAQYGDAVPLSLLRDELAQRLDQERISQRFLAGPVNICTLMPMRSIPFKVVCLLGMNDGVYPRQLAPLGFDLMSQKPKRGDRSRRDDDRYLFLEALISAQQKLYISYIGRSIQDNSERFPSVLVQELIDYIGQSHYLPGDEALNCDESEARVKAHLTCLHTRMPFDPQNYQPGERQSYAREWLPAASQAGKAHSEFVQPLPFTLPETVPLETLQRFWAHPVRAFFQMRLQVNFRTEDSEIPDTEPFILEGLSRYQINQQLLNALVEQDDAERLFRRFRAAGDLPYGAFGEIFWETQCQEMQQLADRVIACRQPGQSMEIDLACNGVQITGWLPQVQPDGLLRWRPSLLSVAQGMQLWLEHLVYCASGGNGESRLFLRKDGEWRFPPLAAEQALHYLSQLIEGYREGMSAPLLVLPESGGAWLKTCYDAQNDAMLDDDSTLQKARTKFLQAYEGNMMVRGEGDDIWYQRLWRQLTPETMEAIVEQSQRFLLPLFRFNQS
Exodeoxyribonuclease V, sequence (P08394 whole entry): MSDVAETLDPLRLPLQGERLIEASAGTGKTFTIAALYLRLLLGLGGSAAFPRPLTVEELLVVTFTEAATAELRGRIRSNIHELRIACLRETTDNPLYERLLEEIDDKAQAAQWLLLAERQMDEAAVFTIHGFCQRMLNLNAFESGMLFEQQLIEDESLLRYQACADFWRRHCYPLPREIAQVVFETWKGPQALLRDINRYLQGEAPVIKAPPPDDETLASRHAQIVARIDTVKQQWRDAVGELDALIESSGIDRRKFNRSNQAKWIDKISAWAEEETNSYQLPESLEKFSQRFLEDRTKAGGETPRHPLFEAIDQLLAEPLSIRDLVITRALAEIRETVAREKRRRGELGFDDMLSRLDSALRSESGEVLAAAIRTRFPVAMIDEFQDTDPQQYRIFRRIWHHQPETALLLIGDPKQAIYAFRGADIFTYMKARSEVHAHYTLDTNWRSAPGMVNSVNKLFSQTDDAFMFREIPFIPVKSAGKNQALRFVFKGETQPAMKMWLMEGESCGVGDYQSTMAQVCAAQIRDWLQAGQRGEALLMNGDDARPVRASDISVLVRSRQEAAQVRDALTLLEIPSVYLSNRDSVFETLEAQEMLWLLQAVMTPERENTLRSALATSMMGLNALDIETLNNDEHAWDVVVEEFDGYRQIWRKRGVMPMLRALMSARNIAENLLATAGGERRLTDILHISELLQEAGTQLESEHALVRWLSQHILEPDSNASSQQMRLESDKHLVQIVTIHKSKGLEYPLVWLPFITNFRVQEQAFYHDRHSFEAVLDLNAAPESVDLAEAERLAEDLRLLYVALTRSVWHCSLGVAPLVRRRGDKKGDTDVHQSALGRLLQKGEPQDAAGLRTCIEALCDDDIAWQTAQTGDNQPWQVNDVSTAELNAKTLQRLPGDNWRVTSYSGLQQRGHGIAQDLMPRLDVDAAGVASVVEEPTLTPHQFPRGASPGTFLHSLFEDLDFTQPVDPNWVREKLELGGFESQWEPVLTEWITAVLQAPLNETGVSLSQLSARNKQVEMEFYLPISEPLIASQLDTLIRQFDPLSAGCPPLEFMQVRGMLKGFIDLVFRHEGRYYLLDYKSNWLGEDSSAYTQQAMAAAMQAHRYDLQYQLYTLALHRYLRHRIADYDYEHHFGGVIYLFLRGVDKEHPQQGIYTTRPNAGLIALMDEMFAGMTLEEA

[2] = viability of PTEN-deleted HCT116 cells – cell-based, HCT116 PTEN knockout, dose response (AID 1047); format: functional;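 further: HCT116 colon tumor cells with PTEN knocked out; cells exposed to compound for 60 hours before readout; potency for loss of cell viability measured by luminescence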
[3] = viability of HCT116 lacking mutant beta-catenin – cell-based, human colon tumor, dose response (AID 1045); format: functional;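 further: HCT116 colon tumor cells with beta catenin knocked out; cells exposed to compound for 60 hours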
Beta-galactosidase = Beta-galactosidase (Escherichia coli, UniProt Q8VNN2); assay: detection-enzyme interference by beta-gal modulators – biochemical, E. coli enzyme, set 3, artefact control for CCR6 antagonist project, dose response (AID 504712); format: functional
Beta-galactosidase, sequence (Q8VNN2 whole entry): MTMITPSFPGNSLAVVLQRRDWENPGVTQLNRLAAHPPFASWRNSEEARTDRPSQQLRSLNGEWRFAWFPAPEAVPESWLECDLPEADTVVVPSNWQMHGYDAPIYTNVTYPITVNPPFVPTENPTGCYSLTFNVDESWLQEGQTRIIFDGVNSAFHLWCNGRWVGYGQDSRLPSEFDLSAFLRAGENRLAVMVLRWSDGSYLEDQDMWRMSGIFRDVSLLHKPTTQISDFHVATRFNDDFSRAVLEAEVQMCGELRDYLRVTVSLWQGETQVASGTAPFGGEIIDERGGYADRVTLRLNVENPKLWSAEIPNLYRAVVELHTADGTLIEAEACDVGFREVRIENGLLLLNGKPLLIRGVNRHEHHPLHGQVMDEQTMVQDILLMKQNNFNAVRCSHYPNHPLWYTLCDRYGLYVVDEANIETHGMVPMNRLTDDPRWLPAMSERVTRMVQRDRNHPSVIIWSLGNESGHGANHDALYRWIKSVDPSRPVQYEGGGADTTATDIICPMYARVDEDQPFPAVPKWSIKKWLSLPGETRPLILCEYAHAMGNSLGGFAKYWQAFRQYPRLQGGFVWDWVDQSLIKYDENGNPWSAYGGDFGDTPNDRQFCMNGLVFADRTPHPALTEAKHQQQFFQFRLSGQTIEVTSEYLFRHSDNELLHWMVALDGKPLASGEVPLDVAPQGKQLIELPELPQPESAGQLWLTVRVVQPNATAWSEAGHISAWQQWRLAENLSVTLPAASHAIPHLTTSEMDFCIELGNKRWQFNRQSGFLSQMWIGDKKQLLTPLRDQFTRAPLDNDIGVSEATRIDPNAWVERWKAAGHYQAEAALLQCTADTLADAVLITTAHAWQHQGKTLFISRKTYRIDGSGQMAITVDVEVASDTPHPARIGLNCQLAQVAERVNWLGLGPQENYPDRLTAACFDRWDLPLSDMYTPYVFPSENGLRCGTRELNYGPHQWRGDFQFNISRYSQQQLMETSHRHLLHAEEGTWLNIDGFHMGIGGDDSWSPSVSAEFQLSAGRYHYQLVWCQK

[4] = non-specific 3'UTR reporter inhibition in Clone20-Shn3RL – cell-based, Renilla luciferase, cherry-picked, counter-screen for Shn3 inhibitor project, dose response (AID 624133); format: functional
[5] = Luminescence Cell-Based Dose Retest to Confirm Inhibitors of Cancer Stem Cells. [Related pubchem assays (depositor defined):AID2717, AID2721]; format: functional; conditions: Homo sapiens
[6] = loss of viability in HepG2 cells – cell-based, CellTiter-Glo, cherry-picked, cytotoxicity control for Shn3 inhibitor project, dose response (AID 624134); format: functional
[7] = microbe, parasite or virus in culture; format: functional; conditions: Mycobacterium tuberculosis
[8] = Counterscreen for AddAB inhibitors: absorbance-based bacterial cell-based high throughput dose response assay for inhibitors of bacterial viability. [Related pubchem assays (depositor defined):AID435030, AID449728, AID449731, AID488942, AID488955, AID488956]; format: functional
[9] = biological target: Sphingosine 1-phosphate receptor 4 (Homo sapiens, UniProt O95977); assay: Fluorescence dose response cell-based high throughput screening assay for agonists of the Sphingosine 1-Phosphate Receptor 4 (S1P4). [Related pubchem assays: 1509 (Primary screen.), 1523 (Confirmation screen in triplicates.)]; format: functional
[10] = biological target: Sphingosine 1-phosphate receptor 1 (Homo sapiens, UniProt P21453); assay: Fluorescence-based counterscreen assay for S1P4 agonists: Cell-based dose response high throughput screening assay to identify agonists of the Sphingosine 1-Phosphate Receptor 1 (S1P1). [Related pubchem assays (depositor defined):AID1509, AID1523, AID1801, AID463107, AID463118, AID463119, AID463122, AID463123, AID463129, AID463225, AID504400, AID504460]; format: functional
Cytochrome P450 2C19 = Cytochrome P450 2C19 (Homo sapiens, UniProt P33261); assay: Cytochrome panel assay with activity outcomes. Panel member name: p450-cyp2c19 Compounds with AC50 equal or less than 10 uM are considered active; format: functional; conditions: read-out: AC50
Cytochrome P450 2C19, sequence (P33261 whole entry): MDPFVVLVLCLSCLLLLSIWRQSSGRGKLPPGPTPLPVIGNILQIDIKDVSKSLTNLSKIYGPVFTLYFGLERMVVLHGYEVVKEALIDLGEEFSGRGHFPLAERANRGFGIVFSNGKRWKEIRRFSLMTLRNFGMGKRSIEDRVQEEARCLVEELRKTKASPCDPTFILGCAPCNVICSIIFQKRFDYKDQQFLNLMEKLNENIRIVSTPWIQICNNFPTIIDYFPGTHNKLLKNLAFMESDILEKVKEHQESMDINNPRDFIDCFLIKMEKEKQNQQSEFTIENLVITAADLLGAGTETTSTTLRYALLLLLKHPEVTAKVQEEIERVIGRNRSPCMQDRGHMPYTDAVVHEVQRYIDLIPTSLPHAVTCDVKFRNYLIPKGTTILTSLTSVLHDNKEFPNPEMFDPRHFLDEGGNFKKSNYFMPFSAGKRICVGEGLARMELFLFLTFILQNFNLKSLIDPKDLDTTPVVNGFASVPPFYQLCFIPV

Cytochrome P450 3A4 = Cytochrome P450 3A4 (Homo sapiens, UniProt P08684);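 further: CYP3A4 tested as one member of a cytochrome P450 panel screen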
Cytochrome P450 3A4, sequence (P08684 whole entry): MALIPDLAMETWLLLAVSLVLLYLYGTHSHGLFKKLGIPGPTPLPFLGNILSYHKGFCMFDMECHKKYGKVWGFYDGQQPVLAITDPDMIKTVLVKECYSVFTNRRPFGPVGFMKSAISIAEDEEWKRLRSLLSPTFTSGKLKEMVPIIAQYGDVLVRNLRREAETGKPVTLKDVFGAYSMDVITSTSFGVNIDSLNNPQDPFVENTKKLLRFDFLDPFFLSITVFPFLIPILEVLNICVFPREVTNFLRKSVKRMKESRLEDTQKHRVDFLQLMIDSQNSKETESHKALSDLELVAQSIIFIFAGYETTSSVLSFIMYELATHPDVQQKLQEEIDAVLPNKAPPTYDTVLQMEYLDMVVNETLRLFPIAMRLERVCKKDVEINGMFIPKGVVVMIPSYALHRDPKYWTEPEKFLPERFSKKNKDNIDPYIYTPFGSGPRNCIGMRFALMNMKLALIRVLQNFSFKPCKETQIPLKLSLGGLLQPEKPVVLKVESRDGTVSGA

## O=C(Nc1ccc([N+](=O)[O-])cc1)Nc1ccc(OC(F)F)c(Cl)c1
[1]
  AC50: 3.59 µM (active)
Exodeoxyribonuclease V
  IC50: > 119 µM (inactive)
[2]
  EC50: 1.37 µM (active)
[3]
  EC50: 1.9 µM (active)
Beta-galactosidase
  IC50: > 66.6 µM (inactive)
[4]
  AC50: 4.77 µM (active)
[5]
  AC50: 1.22 µM (active)
[6]
  AC50: 6.24 µM (active)
[7]
  CC50: 2.83 µM (active)
[8]
  IC50: > 119 µM (inactive)

## COc1ccc(C2CC(c3cccs3)=NN2c2ccccc2)cc1 (centres undefined)
[9]
  EC50: 12.3 µM (not active)
[10]
  EC50: 5.45 µM (active)

## O=C(c1ccco1)N1CCC2(CC1)CCN(c1ccccn1)CC2
Cytochrome P450 2C19
  AC50: 31.6 µM (inconclusive)
Cytochrome P450 3A4
  AC50: inconclusive
